Assay results published in patent publication US9750747B2, “Treatments involving eslicarbazepine acetate or eslicarbazepine” (BAIL-PORTELA & CA, S.A., priority 2011, dated 2017).

Columns and labels:
[1] = system: absence seizure; assay: mouse absence seizure models (γ-butyrolactone induced, SSADH null, stargazer, C3H/He); type: in vivo; conditions: mice models (a)-(d)
[2] = system: primary generalised tonic clonic seizure (PGTCS); assay: randomised double-blind placebo controlled trial of adjunctive treatment in PGTCS; type: in vivo; conditions: human patients, adjunct or monotherapy
Source text: Clinical trial study: A randomised double-blind, placebo controlled, trial assesses the efficacy and safety of adjunctive eslicarbazepine acetate in primary generalised tonic clonic seizure (PGTCS) in human patients in accordance with established methods. Methods: Men and women are selected for trial according to standard inclusion criteria in the field including the following: • Subject is male or female and aged 6-65 years. • Subject has ≧3 PGTCS over the two months before screening and during the eight weeks Baseline Period with at least one seizure in each one month period. […] Trial endpoints assessed clinical criteria are as follows: • time to withdrawal after randomisation; • time to first, second, or other seizure after randomisation (time to first seizure after randomisation allows determination of the proportion of patients at different time points who remain seizure free); • time to achieving remission (e.g. at six months, one year, or two years); • change in seizure severity; • change in seizure frequency; • percentage response to treatment (response defined as a 50% or greater reduction in seizure frequency); • change in seizure-free interval; • change in seizure duration; • change in seizure pattern; • change in functional capacity; and • patient-related quality of life.

CC(=O)O[C@H]1Cc2ccccc2N(C(N)=O)c2ccccc21 [eslicarbazepine acetate, (S)-10-acetoxy-10,11-dihydro-5H-dibenz[b,f]azepine-5-carboxamide]
controlling seizures in mouse absence seizure models [1]: effective in controlling seizures
clinical effects in patients suffering from or susceptible to PGTCS [2]: improved clinical effects
